The values that follow come from patent US20250171434A1, “SEC61 INHIBITORS AND USE THEREOF” (KEZAR LIFE SCIENCES, INC., priority 2022, published 2025).

Structures are written as SMILES. Like-named read-outs stand apart in the source and are kept apart here.

For data set [1], the system named is IL-2-FL/Gaussia Luciferase. Briefly: Dox Inducible IL2-FL-Gluc Assay. It is filed as cell-based. In a few lines: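 Doxycycline induces an IL-2(1-153)–Gaussia luciferase fusion in a stable Flp-In 293 T-REx line. Compound exposure runs alongside induction at 37° C.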
For data set [2], the system named is multiple myeloma cell line NCI-H929. The data set can be described thus: H929 Cell Viability Assay. It is filed as cell-based, human. The conditions noted are these: Homo sapiens. In outline: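 Viability is scored by CellTiter-Glo luminescence following a 48-hour treatment at 37° C. Data for structures shown without stereochemistry refer to stereoisomer mixtures.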

Data set [3] can be described thus: Liver Microsome Stability Assay, mouse. It is filed as in vitro ADME. The conditions noted are these: mouse liver microsomes 1.0 mg/mL, 1.0 uM compound, 37° C., 1 mM NADPH. In outline: (§1)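 Incubations at 37° C contain 1.0 mg/mL liver microsomes and 1.0 uM compound, with 1 mM NADPH present or absent. Time points are 0 and 30 minutes.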
In general terms: Microsomes from liver hold many membrane-bound enzymes, among them those of drug oxidation.

In data set [4] the test system is multiple myeloma cell line U266B1. Briefly: U266 Cell Viability Assay. The format is cell-based. As to conditions: Homo sapiens. In a few lines:
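Viability is measured as luciferase signal from CellTiter-Glo following a 48-hour incubation with compound at 37° C. under 5% CO2. Where structures lack drawn stereochemistry, values refer to stereoisomer mixtures.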

A short description of data set [5]: Liver Microsome Stability Assay, monkey. The format is in vitro ADME. As to conditions: monkey liver microsomes 1.0 mg/mL, 1.0 uM compound, 37° C., 1 mM NADPH. In a few lines: as §1
A short description of data set [6]: Liver Microsome Stability Assay, human. It is filed as in vitro ADME. As to conditions: human liver microsomes 1.0 mg/mL, 1.0 uM compound, 37° C., 1 mM NADPH. In outline:
as §1

A short description of data set [7]: Liver Microsome Stability Assay, rat. It is filed as in vitro ADME. The conditions noted are these: rat liver microsomes 1.0 mg/mL, 1.0 uM compound, 37° C., 1 mM NADPH. In outline: as §1
The subject of data set [8] is PD1-ss+10aa/Gaussia Luciferase. The data set can be described thus: Dox-Induced PD1-ss-Gluc Assay. The format is cell-based. In outline:
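Compounds were added in DMSO/media with doxycycline and incubated at 37 °C, 5% CO2, on 293 T-REx cells plated one day earlier. These cells stably express, under tetracycline-regulated control, a Gaussia luciferase fused to the PD1 signal peptide plus 10 residues. Structures drawn without stereochemistry were tested as stereoisomer mixtures.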

Data set [9] deals with HER3-ss+4aa/Gaussia Luciferase. Briefly: Dox-Inducible Her3-ss-Gluc Assay. It is filed as cell-based. The source says: Flp-In 293 T-REx™ cells were transfected with pcDNA™5/FRT/TO plasmid inserted with cDNA encoding Gaussia Luciferase fused to the 3′ end of cDNA encoding HER3 signal sequence plus 4 amino acids (N-[…]-C) (SEQ ID NO: 2). Transfected cells were selected for resistance to the selectable markers Hygromycin and Blasticidin to create a stable cell line that contained the HER3-ss+4aa/Gaussia Luciferase cDNA insert whose expression was regulated under the T-REx™ system. The day before assay, cells were trypsinized and plated in 384-well tissue culture plates. The next day, compound dilutions in DMSO/media containing doxycycline were added to the wells and incubated at 37° C., 5% CO2.
(§2) For chemical structures that include one or more stereoisomers, but are illustrated without indicating stereochemistry, the assay data refers to a mixture of stereoisomers.

For data set [10], the system named is TNFα-FL/Gaussia Luciferase. Briefly: Dox Induced TNFα-FL-Gluc Assay. The format is cell-based.
Text: Flp-In 293 T-REx™ cells were transfected with pcDNA™5/FRT/TO plasmid inserted with cDNA encoding Gaussia Luciferase fused to the 3′ end of cDNA encoding full length TNFα (amino acids 1-233). Transfected cells were selected for resistance to the selectable markers Hygromycin and Blasticidin to create a stable cell line that contained the TNFα-FL/Gaussia Luciferase cDNA insert whose expression was regulated under the T-REx™ system. The day before assay, cells were trypsinized and plated in 384-well tissue culture plates. The next day, compound dilutions in DMSO/media containing doxycycline were added to the wells and incubated at 37° C., 5% CO2.
as §2

[11] abbreviates: Flp-In 293 T-REx cells, 24 hours with doxycycline; Table 3; read-out: 24 hr Dox Inducible IL2FLGluc 293FRT/TO: Mean IC50.
Setting [12] is: ratio of IC50s IL2/PD1; Table 3.
Setting [13] is: NCI-H929 cells, 48 hours, Celltiter-Glo, read-out: 48 hr H929 Viability Celltiter-Glo: Mean EC50.
[14] abbreviates: U-266, U266B1 cells, 48 hours, Celltiter-Glo, read-out: 48 hr U266 Viability Celltiter-Glo: Mean EC50.
[15] abbreviates: Flp-In 293 T-REx cells, 24 hours with doxycycline; Table 3; read-out: 24 hr Dox Inducible PD1ssGluc 293FRT/TO: Mean IC50.
Setting [16] is: Flp-In 293 T-REx cells, 24 hours with doxycycline; Table 3; read-out: 24 hr Dox Inducible Her3(ss + 4)Gluc 293FRT/TO: Mean IC50.
[17] abbreviates: Flp-In 293 T-REx cells, 24 hours with doxycycline; Table 3; read-out: 24 hr Dox Inducible TNFaFLGluc 293FRT/TO: Mean IC50.
[18] abbreviates: ratio of IC50s TNF/PD1; Table 3.

With `C/C(=C\c1ccc(C)c(F)n1)c1csc(NC(=O)c2cccn2Cc2ccnc(F)c2)n1` [Compound B7, (E)-N-(4-(1-(6-fluoro-5-methylpyridin-2-yl)prop-1-en-2-yl)thiazol-2-yl)-1-((2-fluoropyridin-4-yl)methyl)-1H-pyrrole-2-carboxamide], the IC50 in data set [1] (setting [11]) was found to be 499 nM; in data set [8] (setting [15]), 30 nM; in data set [9] (setting [16]), 184 nM; in [10] (setting [17]) it was 3.98 µM. The “24 hr Dox Inducible IL2FLGluc 293FRT/TO: IL2/PD1” value in [1] (setting [12]) is listed as 17. For the same molecule, the EC50 in data set [2] (setting [13]) is 8090 nM; in [4] (setting [14]), over 25000 nM. The “Liver Microsome Stability (Multiple Species): Mouse - % Remaining after 30 min w/ NADPH (%)” value in data set [3] was found to be 23%. In data set [5], the “Liver Microsome Stability (Multiple Species): Monkey - % Remaining after 30 min w/ NADPH (%)” value is listed as 6%. Moreover, the “Liver Microsome Stability (Multiple Species): Human - % Remaining after 30 min w/ NADPH (%)” value in data set [6] turned out to be 4%. Also, the “Liver Microsome Stability (Multiple Species): Rat - % Remaining after 30 min w/ NADPH (%)” value in data set [7] stood at 13%. The “24 hr Dox Inducible TNFaFLGluc 293FRT/TO: TNF/PD1” value in [10] (setting [18]) amounted to 134.
`O=C(Nc1nc(/C=C/c2ccc(OC(F)F)cn2)cs1)c1cccn1Cc1ccnc(F)c1` [Compound B4, (E)-N-(4-(2-(5-(difluoromethoxy)pyridin-2-yl)vinyl)thiazol-2-yl)-1-((2-fluoropyridin-4-yl)methyl)-1H-pyrrole-2-carboxamide]: the IC50 in data set [1] (setting [11]) was 1650 nM; in data set [8] (setting [15]), 13 nM; in [9] (setting [16]), 816 nM; in data set [10] (setting [17]), 7.04 µM. For the same molecule, the “24 hr Dox Inducible IL2FLGluc 293FRT/TO: IL2/PD1” value in [1] (setting [12]) amounted to 130. The results for the concentration giving a half-maximal response (EC50) in [2] (setting [13]) and in data set [4] (setting [14]) were 8750 nM and 19400 nM, respectively. In addition, in [3], the “Liver Microsome Stability (Multiple Species): Mouse - % Remaining after 30 min w/ NADPH (%)” value was found to be 7%. The “Liver Microsome Stability (Multiple Species): Monkey - % Remaining after 30 min w/ NADPH (%)” value in data set [5] is under 1%. Also, in data set [6], the “Liver Microsome Stability (Multiple Species): Human - % Remaining after 30 min w/ NADPH (%)” value was under 1%. In addition, the “Liver Microsome Stability (Multiple Species): Rat - % Remaining after 30 min w/ NADPH (%)” value in [7] is recorded as 1%. Moreover, in data set [10] (setting [18]), the “24 hr Dox Inducible TNFaFLGluc 293FRT/TO: TNF/PD1” value is 544.
For `CC(C)n1cnc(F)c1/C=C/c1csc(NC(=O)c2cccn2Cc2ccnc(F)c2)n1` [Compound B2, (E)-N-(4-(2-(4-fluoro-1-isopropyl-1H-imidazol-5-yl)vinyl)thiazol-2-yl)-1-((2-fluoropyridin-4-yl)methyl)-1H-pyrrole-2-carboxamide], the “24 hr Dox Inducible IL2FLGluc 293FRT/TO: IL2/PD1” value in data set [1] (setting [12]) is reported as 2. In addition, the IC50 in data set [1] (read-out: 24 hr Dox Inducible IL2FLGluc 293FRT/TO: Mean IC50; Flp-In 293 T-REx cells, 24 hours with doxycycline; Table 3) was 6640 nM; in [8] (read-out: 24 hr Dox Inducible PD1ssGluc 293FRT/TO: Mean IC50; Flp-In 293 T-REx cells, 24 hours with doxycycline; Table 3), 4480 nM; in data set [9] (read-out: 24 hr Dox Inducible Her3(ss + 4)Gluc 293FRT/TO: Mean IC50; Flp-In 293 T-REx cells, 24 hours with doxycycline; Table 3), 6400 nM; in data set [10] (read-out: 24 hr Dox Inducible TNFaFLGluc 293FRT/TO: Mean IC50; Flp-In 293 T-REx cells, 24 hours with doxycycline; Table 3), over 25 µM. In addition, the EC50 in [2] (NCI-H929, 48 h, read-out: 48 hr H929 Viability Celltiter-Glo: Mean EC50 (nM)) was over 25000 nM; in data set [4] (U-266, 48 h, read-out: 48 hr U266 Viability Celltiter-Glo: Mean EC50 (nM)) it was over 25000 nM. In data set [3], the “Liver Microsome Stability (Multiple Species): Mouse - % Remaining after 30 min w/ NADPH (%)” value is on record as 6%. The “Liver Microsome Stability (Multiple Species): Monkey - % Remaining after 30 min w/ NADPH (%)” value in data set [5] is on record as under 1%. In addition, the “Liver Microsome Stability (Multiple Species): Human - % Remaining after 30 min w/ NADPH (%)” value in [6] is given as under 1%. In addition, in [7], the “Liver Microsome Stability (Multiple Species): Rat - % Remaining after 30 min w/ NADPH (%)” value came to 8%. Also, in data set [10] (setting [18]), the “24 hr Dox Inducible TNFaFLGluc 293FRT/TO: TNF/PD1” value is over 5.

Broadly, the EC50 is the concentration needed to bring the measured effect to its halfway point.
